Literature values as cited in patent US20090304794A1, “CONTROLLED RELEASE FORMULATIONS OF PRAMIPEXOLE” (Supernus Pharmaceuticals, Inc., priority 2008, published 2009).
Where two headings read alike, the source gives them in different places.

terminal elimination half-life (elderly volunteers): about 12 hours
lower clearance rate in females than males (females versus males): 30%
terminal elimination half-life (healthy volunteers): about 8 hours
absolute bioavailability (BA) (in vivo): greater than 90%
Compound: CCCN[C@H]1CCc2nc(N)sc2C1 [pramipexole]
